≈ marks a conversion by molar mass, not a printed value.
Legend:
RAW264.7 [1] = test: Cytotoxicity mouse RAW264.7 cells assessed as cell viability by MTT assay relative to control; assay type: cell-based
RAW264.7 [2] = test: Inhibition of LPS-induced NO production in mouse RAW264.7 cells compound preincubated for 1 hr before LPS treatment by Griess reaction; assay type: functional, cell-based
[3] = Cytotoxicity against mouse J774A1 cells assessed as cell viability by MTT assay relative to control; assay type: cell-based; settings: J774.A1
J774.A1 [4] = test: Inhibition of LPS-induced NO production in mouse J774A1 cells compound preincubated for 1 hr before LPS treatment by Griess reaction; assay type: functional, cell-based
J774.A1 [5] = test: Inhibition of LPS-induced IL1-beta release in mouse J774A1 cells compound preincubated at 20 ug/ml for 1 hr before LPS treatment measured after 6 to 12 hrs by sandwich immunoassay; assay type: functional
RAW264.7 [6] = test: Inhibition of LPS-induced TNF-alpha release in mouse RAW264.7 cells compound preincubated at 20 ug/ml for 1 hr before LPS treatment measured after 6 to 12 hrs by sandwich immunoassay; assay type: functional
J774.A1 [7] = test: Inhibition of LPS-induced TNF-alpha release in mouse J774A1 cells compound preincubated at 20 ug/ml for 1 hr before LPS treatment measured after 6 to 12 hrs by sandwich immunoassay; assay type: functional
RAW264.7 [8] = test: Inhibition of LPS-induced IL1-beta release in mouse RAW264.7 cells compound preincubated at 20 ug/ml for 1 hr before LPS treatment measured after 6 to 12 hrs by sandwich immunoassay; assay type: functional
J774.A1 [9] = test: Inhibition of LPS-induced TNF-alpha release in mouse J774A1 cells compound preincubated for 1 hr before LPS treatment measured after 6 to 12 hrs by sandwich immunoassay; assay type: functional, cell-based
J774.A1 [10] = test: Inhibition of LPS-induced IL1-beta release in mouse J774A1 cells compound preincubated for 1 hr before LPS treatment measured after 6 to 12 hrs by sandwich immunoassay; assay type: functional, cell-based
RAW264.7 [11] = test: Inhibition of LPS-induced TNF-alpha release in mouse RAW264.7 cells compound preincubated for 1 hr before LPS treatment measured after 6 to 12 hrs by sandwich immunoassay; assay type: functional, cell-based
RAW264.7 [12] = test: Inhibition of LPS-induced IL1-beta release in mouse RAW264.7 cells compound preincubated for 1 hr before LPS treatment measured after 6 to 12 hrs by sandwich immunoassay; assay type: functional, cell-based

| SMILES | IC50 (RAW264.7 [2]) [µM] | IC50 (J774.A1 [4]) [µM] | IC50 (J774.A1 [9]) [µg/mL] | IC50 (J774.A1 [10]) [µg/mL] | IC50 (RAW264.7 [11]) [µg/mL] | IC50 (RAW264.7 [12]) [µg/mL] | IC50 (RAW264.7 [1]) [µM] | IC50 [3] [µM] | inhibition at 20 µg/mL (J774.A1 [5]) [%] | inhibition at 20 µg/mL (RAW264.7 [6]) [%] | inhibition at 20 µg/mL (J774.A1 [7]) [%] | inhibition at 20 µg/mL (RAW264.7 [8]) [%] |
| --- | --- | --- | --- | --- | --- | --- | --- | --- | --- | --- | --- | --- |
| CC1(C)CC[C@]2(C(=O)NC3CCCCC3)CC[C@]3(C)C(=CC[C@@H]4[C@@]5(C)Cc6c([nH]c7ccccc67)C(C)(C)[C@@H]5CC[C@]43C)[C@@H]2C1 | 2.66 | 10.8 |  |  |  |  | 96.4 | 97.3 | 31.7 | 47.8 | 51.9 | 37.5 |
| CC1(C)CC[C@]2(C(=O)NCc3ccccc3)CC[C@]3(C)C(=CC[C@@H]4[C@@]5(C)Cc6c([nH]c7ccccc67)C(C)(C)[C@@H]5CC[C@]43C)[C@@H]2C1 | 24.1 | 18.4 |  |  |  |  | 93.5 | 93.5 |  |  |  |  |
| Cc1ccc(C)c(NC(=O)[C@]23CCC(C)(C)C[C@H]2C2=CC[C@@H]4[C@@]5(C)Cc6c([nH]c7ccccc67)C(C)(C)[C@@H]5CC[C@@]4(C)[C@]2(C)CC3)c1 | 23.2 | 29.4 |  |  |  |  | 83.2 | 84.7 |  |  |  |  |
| Cc1ccc(NC(=O)[C@]23CCC(C)(C)C[C@H]2C2=CC[C@@H]4[C@@]5(C)Cc6c([nH]c7ccccc67)C(C)(C)[C@@H]5CC[C@@]4(C)[C@]2(C)CC3)cc1 | 22.6 | 26.1 |  |  |  |  | 80.4 | 83.5 |  |  |  |  |
| CC1(C)CC[C@]2(C(=O)Nc3ccc(Br)cc3)CC[C@]3(C)C(=CC[C@@H]4[C@@]5(C)Cc6c([nH]c7ccccc67)C(C)(C)[C@@H]5CC[C@]43C)[C@@H]2C1 | 25.4 | 27.4 |  |  |  |  | 85.3 | 87 |  |  |  |  |
| COc1cc(/C=C/C(=O)CC(=O)/C=C/c2ccc(O)c(OC)c2)ccc1O [CURCUMIN] |  | 18.5 | 2.08 (≈ 5.65 µM) | 24.8 (≈ 67.4 µM) | 1.25 (≈ 3.39 µM) | 6.44 (≈ 17.5 µM) |  |  |  |  |  |  |
| C[C@@H]1C[C@H]2[C@@H]3CCC4=CC(=O)C=C[C@]4(C)[C@@]3(F)[C@@H](O)C[C@]2(C)[C@@]1(O)C(=O)CO [DEXAMETHASONE] |  |  | 0.165 (≈ 0.42 µM) | 9.09 (≈ 23.2 µM) | 0.016 (≈ 0.0408 µM) | 1.84 (≈ 4.69 µM) |  |  |  |  |  |  |
| COC(=O)[C@@H](N)CCCNC(=N)N[N+](=O)[O-] [L-NAME] |  | 73.2 |  |  |  |  |  |  |  |  |  |  |

The next lines start with results.

| IC50 (RAW264.7 [2]) [µM] | IC50 (J774.A1 [4]) [µM] | IC50 (J774.A1 [9]) [µg/mL] | IC50 (J774.A1 [10]) [µg/mL] | IC50 (RAW264.7 [11]) [µg/mL] | IC50 (RAW264.7 [12]) [µg/mL] | SMILES | IC50 (RAW264.7 [1]) [µM] | IC50 [3] [µM] | inhibition at 20 µg/mL (J774.A1 [5]) [%] | inhibition at 20 µg/mL (RAW264.7 [6]) [%] | inhibition at 20 µg/mL (J774.A1 [7]) [%] | inhibition at 20 µg/mL (RAW264.7 [8]) [%] |
| --- | --- | --- | --- | --- | --- | --- | --- | --- | --- | --- | --- | --- |
| 31.7 | 33.5 |  |  |  |  | COC(=O)[C@]12CCC(C)(C)C[C@H]1C1=CC[C@@H]3[C@@]4(C)CCC(=O)C(C)(C)[C@@H]4CC[C@@]3(C)[C@]1(C)CC2 | 79.3 | 82.5 |  |  |  |  |
| 39.2 | 41.3 |  |  |  |  | CC1(C)CC[C@]2(C(=O)O)CC[C@]3(C)C(=CC[C@@H]4[C@@]5(C)CC/C(=N\O)C(C)(C)[C@@H]5CC[C@]43C)[C@@H]2C1 | 82.4 | 85.5 |  |  |  |  |
| 22.8 | 24.9 |  |  |  |  | CC1(C)CC[C@]2(C(=O)Cl)CC[C@]3(C)C(=CC[C@@H]4[C@@]5(C)Cc6c([nH]c7ccccc67)C(C)(C)[C@@H]5CC[C@]43C)[C@@H]2C1 | 86.2 | 89.3 |  |  |  |  |
| 16.5 | 17.7 |  |  |  |  | CC1(C)CC[C@]2(C(=O)NN)CC[C@]3(C)C(=CC[C@@H]4[C@@]5(C)Cc6c([nH]c7ccccc67)C(C)(C)[C@@H]5CC[C@]43C)[C@@H]2C1 | 92.4 | 91 | 11.1 | 31.2 | 27.9 | 13.9 |
| 4.75 | 15.9 |  |  |  |  | CNC(=O)[C@]12CCC(C)(C)C[C@H]1C1=CC[C@@H]3[C@@]4(C)Cc5c([nH]c6ccccc56)C(C)(C)[C@@H]4CC[C@@]3(C)[C@]1(C)CC2 | 90.3 | 91.7 | 11.8 | 43.7 | 40.3 | 13.3 |
| 18.8 | 21 |  |  |  |  | CC1(C)CC[C@]2(C(=O)O)CC[C@]3(C)C(=CC[C@@H]4[C@@]5(C)Cc6c([nH]c7ccccc67)C(C)(C)[C@@H]5CC[C@]43C)[C@@H]2C1 | 80.2 | 83.7 |  |  |  |  |
| 13.8 | 16.8 |  |  |  |  | CC(=O)O[C@H]1CC[C@]2(C)[C@H]3CC=C4[C@@H]5CC(C)(C)CC[C@]5(C(=O)O)CC[C@@]4(C)[C@]3(C)CC[C@H]2C1(C)C [ACETYL OLEANOLIC ACID] | 79.2 | 80.3 | 21.1 | 38.7 | 33.1 | 22.8 |
| 41.7 | 35.2 |  |  |  |  | CC1(C)CC[C@]2(C(=O)O)CC[C@]3(C)C(=CC[C@@H]4[C@@]5(C)CC[C@H](O)C(C)(C)[C@@H]5CC[C@]43C)[C@@H]2C1 [OLEANOLIC_ACID] | 89.1 | 87.2 |  |  |  |  |
| 38.5 | 38.8 |  |  |  |  | CC1(C)CC[C@]2(C(=O)O)CC[C@]3(C)C(=CC[C@@H]4[C@@]5(C)CCC(=O)C(C)(C)[C@@H]5CC[C@]43C)[C@@H]2C1 [OLEANONIC ACID] | 89.6 | 87.7 |  |  |  |  |

— ChEMBL document CHEMBL3352652, “Oleanolic acid analogs as NO, TNF-α and IL-1β inhibitors: synthesis, biological evaluation and docking studies” (Bioorg Med Chem Lett, 2014)
